Data from ChEMBL document CHEMBL3407488, “Synthesis and L-type calcium channel blocking activity of new chiral oxadiazolothiazinones” (Eur J Med Chem, 2015).

Key:
[1] = test system: Left cardiac atrium; assay: Negative ionotropic activity in guinea pig left atrium assessed as decrease in developed tension driven at 1 Hz; type: functional, tissue-based; conditions: Cavia porcellus
[2] = test system: Right cardiac atrium; assay: Negative chronotropic activity in guinea pig […] atrium assessed as decrease in atrial rate on spontaneous beating at 10^-5 M relative to control; type: functional, Cavia porcellus; set-up: scale not given: the % may be the effect or the level left
[3] = species on record: Cavia porcellus; assay: Antagonist activity at Cav1.2a in K+-depolarized guinea pig aortic strips assessed as inhibition of calcium-induced contraction at 10^-4 M relative to control; type: tissue-based; set-up: scale not given: the % may be the effect or the level left; conditions: Aorta
[4] = test system: Cav1.2b; assay: Antagonist activity at Cav1.2b in K+-depolarized guinea pig ileum longitudinal smooth muscle assessed as inhibition of calcium-induced contraction at 10^-4 M relative to control; type: tissue-based, Cavia porcellus; conditions: read-out: Activity
[5] = test system: Left cardiac atrium; assay: Negative ionotropic activity in guinea pig left atrium assessed as decrease in developed tension driven at 1 Hz at 5 x 10^-6 M relative to control; type: functional, Cavia porcellus; set-up: scale not given: the % may be the effect or the level left
[6] = Antagonist activity at Cav1.2b in K+-depolarized guinea pig ileum longitudinal smooth muscle assessed as inhibition of calcium-induced contraction; type: tissue-based; conditions: Cavia porcellus
[7] = test system: Left cardiac atrium; assay: Ratio of diltiazem EC50 to compound EC50 for negative ionotropic activity in guinea pig left atrium assessed as decrease in developed tension driven at 1 Hz; type: functional, Cavia porcellus
[8] = test system: Left cardiac atrium; assay: Negative ionotropic activity in guinea pig left atrium assessed as decrease in developed tension driven at 1 Hz at 10^-6 M relative to control; type: functional, Cavia porcellus; set-up: scale not given: the % may be the effect or the level left
[9] = test system: Right cardiac atrium; assay: Negative chronotropic activity in guinea pig […] atrium assessed as decrease in atrial rate on spontaneous beating at 10^-4 M relative to control; type: functional, Cavia porcellus; set-up: scale not given: the % may be the effect or the level left
[10] = test system: Left cardiac atrium; assay: Negative ionotropic activity in guinea pig left atrium assessed as decrease in developed tension driven at 1 Hz at 5 x 10^-7 M relative to control; type: functional, Cavia porcellus; set-up: scale not given: the % may be the effect or the level left
[11] = test system: Right cardiac atrium; assay: Negative chronotropic activity in guinea pig […] atrium assessed as decrease in atrial rate on spontaneous beating at 5 x 10^-8 M relative to control; type: functional, Cavia porcellus; set-up: scale not given: the % may be the effect or the level left
[12] = species on record: Cavia porcellus; assay: Antagonist activity at Cav1.2a in K+-depolarized guinea pig aortic strips assessed as inhibition of calcium-induced contraction at 5 x 10^-8 M relative to control; type: tissue-based; set-up: scale not given: the % may be the effect or the level left; conditions: Aorta
[13] = species on record: Cavia porcellus; assay: Antagonist activity at Cav1.2a in K+-depolarized guinea pig aortic strips assessed as inhibition of calcium-induced contraction at 5 x 10^-5 M relative to control; type: tissue-based; set-up: scale not given: the % may be the effect or the level left; conditions: Aorta
[14] = test system: Cav1.2b; assay: Antagonist activity at Cav1.2b in K+-depolarized guinea pig ileum longitudinal smooth muscle assessed as inhibition of calcium-induced contraction at 5 x 10^-5 M relative to control; type: tissue-based, Cavia porcellus; conditions: read-out: Activity
[15] = test system: Right cardiac atrium; assay: Negative chronotropic activity in guinea pig […] atrium assessed as decrease in atrial rate on spontaneous beating at 5 x 10^-6 M relative to control; type: functional, Cavia porcellus; set-up: scale not given: the % may be the effect or the level left
[16] = Selectivity ratio of IC50 for Cav1.2b in K+-depolarized guinea pig ileum longitudinal smooth muscle to EC50 for negative ionotropic activity in guinea pig left atrium; set-up: species or system Cavia porcellus, Muscle tissue
[17] = test system: Left cardiac atrium; assay: Negative ionotropic activity in guinea pig left atrium assessed as decrease in developed tension driven at 1 Hz at 10^-5 M relative to control; type: functional, Cavia porcellus; set-up: scale not given: the % may be the effect or the level left
[18] = test system: Right cardiac atrium; assay: Negative chronotropic activity in guinea pig […] atrium assessed as decrease in atrial rate on spontaneous beating at 10^-6 M relative to control; type: functional, Cavia porcellus; set-up: scale not given: the % may be the effect or the level left
[19] = test system: Right cardiac atrium; assay: Negative chronotropic activity in guinea pig […] atrium assessed as decrease in atrial rate on spontaneous beating; type: functional; conditions: Cavia porcellus
[20] = Antagonist activity at Cav1.2a in K+-depolarized guinea pig aortic strips assessed as inhibition of calcium-induced contraction; type: tissue-based; conditions: Cavia porcellus, Aorta
[21] = test system: Cav1.2b; assay: Antagonist activity at Cav1.2b in K+-depolarized guinea pig ileum longitudinal smooth muscle assessed as inhibition of calcium-induced contraction at 10^-6 M relative to control; type: tissue-based, Cavia porcellus; conditions: read-out: Activity
[22] = Selectivity ratio of IC50 for Cav1.2a in K+-depolarized guinea pig aortic strips to IC50 for Cav1.2b in K+-depolarized guinea pig ileum longitudinal smooth muscle; set-up: species or system Cavia porcellus, Muscle tissue
[23] = test system: Right cardiac atrium; assay: Negative chronotropic activity in guinea pig […] atrium assessed as decrease in atrial rate on spontaneous beating at 5 x 10^-5 M relative to control; type: functional, Cavia porcellus; set-up: scale not given: the % may be the effect or the level left
[24] = Selectivity ratio of IC50 for Cav1.2b in K+-depolarized guinea pig ileum longitudinal smooth muscle to IC50 for Cav1.2a in K+-depolarized guinea pig aortic strips; set-up: species or system Cavia porcellus, Muscle tissue
[25] = test system: Right cardiac atrium; assay: Negative chronotropic activity in guinea pig […] atrium assessed as decrease in atrial rate on spontaneous beating at 5 x 10^-7 M relative to control; type: functional, Cavia porcellus; set-up: scale not given: the % may be the effect or the level left
[26] = test system: Cav1.2b; assay: Antagonist activity at Cav1.2b in K+-depolarized guinea pig ileum longitudinal smooth muscle assessed as inhibition of calcium-induced contraction at 5 x 10^-6 M relative to control; type: tissue-based, Cavia porcellus; conditions: read-out: Activity

Compound | EC50 [1] | Activity [3] | inhibition at 100 µM [4] | IC50 [6] | Activity [8] | Activity [9] | other results
CC1=CSC(OCC(F)(F)F)(c2ccc(Br)cc2)c2noc(=O)n21 (racemic) | 22 nM | 28% | 73% | 25900 nM | – | – | Activity [2]: 4%; Activity [5]: 76%; Ratio EC50 [7]: 36
CCO[C@]1(c2ccc(Br)cc2)SC=C(C)n2c1noc2=O | 70 nM | 11% | – | – | 77% | – | Activity [2]: 16%
CC1=CS[C@@](OCC(F)(F)F)(c2ccc(Br)cc2)c2noc(=O)n21 | 34 nM | 12% | 85% | 19000 nM | 82% | 16% | –
O=c1onc2n1-c1ccccc1S[C@@]2(OCC(F)(F)F)c1ccc(Br)cc1 | 11 nM | – | 47% | – | – | – | Activity [10]: 52%; Activity [11]: 25%; Activity [12]: 28%
CCO[C@@]1(c2ccc(Br)cc2)Sc2ccccc2-n2c1noc2=O | – | – | – | 5190 nM | – | – | Activity [13]: 2%; inhibition at 50 µM [14]: 60%; Activity [5]: 25%; Activity [15]: 10%
O=c1onc2n1-c1ccccc1SC2(OCC(F)(F)F)c1ccc(Br)cc1 (racemic) | 6 nM | 21% | 54% | 11800 nM | 75% | 7% | Selectivity ratio [16]: 1965
COc1ccc([C@@H]2Sc3ccccc3N(CCN(C)C)C(=O)[C@@H]2OC(C)=O)cc1 [DILTIAZEM] | 790 nM | 88% | – | 110 nM | – | – | Activity [17]: 78%; Activity [18]: 94%; EC30 [19]: 70 nM; IC50 [20]: 2600 nM; inhibition at 1 µM [21]: 98%; Ratio IC50 [22]: 24
CCO[C@@]1(c2ccc(Br)cc2)SC=C(C)n2c1noc2=O | – | 7% | – | – | 58% | – | Activity [23]: 15%
CCOC1(c2ccc(Br)cc2)Sc2ccccc2-n2c1noc2=O (racemic) | 13 nM | 4% | 87% | 8320 nM | 81% | 7% | IC50 [20]: 13 nM; Ratio IC50 [24]: 640
O=c1onc2n1-c1ccccc1S[C@]2(OCC(F)(F)F)c1ccc(Br)cc1 | 9.8 nM | 1% | 54% | 4580 nM | 77% | – | Activity [2]: 24%
CC1=CS[C@](OCC(F)(F)F)(c2ccc(Br)cc2)c2noc(=O)n21 | 26 nM | 9% | 98% | 12200 nM | – | – | Activity [5]: 82%; Activity [23]: 40%
CCOC1(c2ccc(Br)cc2)SC=C(C)n2c1noc2=O (racemic) | 40 nM | 19% | 3% | – | 78% | 5% | Ratio EC50 [7]: 20
CCO[C@]1(c2ccc(Br)cc2)Sc2ccccc2-n2c1noc2=O | 9.3 nM | – | – | 20 nM | – | – | Activity [10]: 64%; Activity [25]: 20%; Activity [13]: 8%; inhibition at 5 µM [26]: 78%
